# Tests used:
# [1] = test system: Aspergillus niger; test: Antimicrobial activity by agar diffusion method (paper disc); assay type: cell-based
# Description: The antimicrobial activity of tautomycetin prepared in Example 3 was measured by agar diffusion method. 1×10^8/ml of spore suspension of Aspergillus niger was mixed with glucose-yeast extract agar medium and a paper disc containing tautomycetin was put on the agar plate.
# [2] = test system: T-cell proliferation in mixed lymphocyte reaction (splenocytes of Balb/C and C57BL/6 mouse); test: Mouse mixed lymphocyte reaction (MLR), [3H]-thymidine labelling; assay type: cell-based; details: 72 hours + 24 hours [3H]-thymidine
# Description: After the mixed cell culture was incubated at 37° C. for 72 hours, under an environment of 5% CO2, [^3H]-thymidine was added to the plate and further incubated for 24 hours to investigate the suppressive activity against T-cell proliferation by the degree of thymidine labelling.
# [3] = test system: IL-2 expression; test: IL-2 expression reporter (NF-AT/IL-2 promoter β-galactosidase) in transfected Jurkat T cells stimulated by PMA and ionomycin; assay type: cell-based, human
# Text: The suppressive activity of tautomycetin against the expression of interleukin-2(IL-2), which plays a crucial role in the immune system, was investigated by treating T-cell proliferating factors such as phorbol-12-myristate-13-acetate(PMA) and ionomycin, which activate protein kinase C to increase the level of diacylglycerol and Ca^2+ in cells: First, to monitor the IL-2 expression level indirectly, transfected Jurkat T cells where the expression of β-galactosidase is driven by the multiple NF-AT(nuclear transcriptional activator) binding sites upstream of minimal IL-2 promoter, were employed and the cells were resuspended in RPMI medium containing 10% fetal bovine serum, 2 mM L-glutamine and 100 unit of penicillin. 1×10^5 of transfected Jurkat T cells were aliquoted to 96-wll microplate, and incubated for 24 hours with the 4 μM ionomycin and 64 nM PMA, while changing the concentration of tautomycetin. Then, centrifugation was carried out to harvest cells, and washed twice with phosphate-buffered saline(PBS). 150 μl of β-galactosidase detecting solution(containing 0.1% Triton X-100, 200 mM sodium phosphate, 2 mM MgCl2, 100 mM β-mercaptoethanol, 1.33 mg/ml ONPG) was added to each well and incubated at 37° C. for 1 hour. 100 μl of 1M sodium carbonate was added to stop the reaction and measured the suppressive activity of tautomycetin against the IL-2 expression by spectrophotometry at a wavelength of 410 nm.
# [4] = test system: IL-2 expression; test: IL-2 expression reporter (NF-AT/IL-2 promoter β-galactosidase) in transfected Jurkat T cells stimulated by OKT-3 (TcR-mediated) and PMA; assay type: cell-based, human
# Description: Monoclonal antibody OKT-3, which binds specifically to ε-chain of T-cell receptor(TcR)-CD3 complex, induces IL-2 expression and specific T-cell proliferation by activating TcR-mediated signal transduction. In this regard, the suppressive activity of tautomycetin against the expression of IL-2 stimulated via TcR was investigated: First, 10 μg of goat anti-mouse IgG was immobilized on 96-well microplate in an ELISA coating buffer(pH 9.0) and 10 μg of monoclonal antibody OKT-3 was also immobilzed thereon. To monitor the IL-2 expression level indirectly, transfected Jurkat T cells where the expression of β-galactosidase is driven by the multiple NF-AT(nuclear transcriptional activator) binding sites upstream of minimal IL-2 promoter, were employed and the cells were resuspended in RPMI medium containing 10% fetal bovine serum, 2 mM L-glutamine and 100 unit of penicillin. 1×10^5 of transfected Jurkat T cells were aliquoted to 96-well microplate, and incubated for 24 hours in a medium containing 64 nM PMA while changing the concentration of tautomycetin. Then, centrifugation was carried out to harvest cells, and washed twice with PBS. 150 μl of β-galactosidase detecting solution(containing 0.1% Triton X-100, 200 mM sodium phosphate, 2 mM MgCl2, 100 mM β-mercaptoethanol, 1.33 mg/ml ONPG) was added to each well and after 1 hour, 100 μl of 1M sodium carbonate was added to stop the reaction and measured the suppressive activity of tautomycetin against the IL-2 expression by spectrophotometry at a wavelength of 410 nm.
# [5] = test system: tyrosine phosphorylation of intracellular proteins involved in TcR-mediated signal transduction; test: Immunoblot of tyrosine phosphorylation in CD8-ζ transfected Jurkat T cells stimulated by OKT-8; assay type: cell-based, human; details: 1 μg/ml, 10 hours, Jurkat T CD8-ζ transfectants, OKT-8 stimulation
# Description: The suppressive activity of tautomycetin against the signal transduction around the membrane was investigated by determining the suppressive activity against the tyrosine phosphorylation of intracellular protein: To analyse the pathway of signal transduction mediated by TcR, Jurkat T cells which were transfected with a recombinant gene fragment, CD8-ζ chimeric DNA, harboring the ecto+transmembrane domain of CD8 and endomembrane domain of CD3-ζ chain, were cultured in RPMI medium containing 10% fetal bovine serum, 2 mM L-glutamine and 100 unit of penicillin. 1 μg/ml of tautomycetin was treated to 1×10^6 of Jurkat T cell transfectants and incubated for 10 hours, then centrifugation was carried out to harvest cells. The cells were washed twice with PBS and then stimulated by 10 μg/ml of OKT-8 and 10 μg/ml of the rabbit anti-mouse IgG antibody. The tyrosine phosphorylation was detected by immunoblot where the protein was isolated by 12.5% SDS-polyacrylamide gel electrophoresis and transferred to Immunobilon-P membrane(Millipore, U.S.A.). The phosphorylated tyrosine residue of intracellular protein or ZAP-70 protein was detected by the treatment of monoclonal antibody 4G10(Upstate Biotech Inc., U.S.A) or monoclonal antibody against ZAP-70(Zymed, U.S.A.), respectively. […]
# [6] = test system: tyrosine phosphorylation of intracellular proteins (BcR signal transduction); test: Immunoblot of tyrosine phosphorylation in CD8-Igα/CD8-Igβ transfected BJAB cell (human B-cell); assay type: cell-based; details: BJAB transfectants, stimulation by monoclonal antibody against BcR
# [7] = test system: cell surface antigen CD69; test: Activation-induced CD69 expression in Jurkat T cells, flow cytometry; assay type: cell-based, human; details: 1 μg/ml, OKT-3 + PMA, 20 hours
# Description: 1 μg/ml of tautomycetin was added to 1×10^6 of Jurkat T cells, which were stimulated by 10 μg/ml of OKT-3 monoclonal antibody and 50 ng/ml of PMA, and the cells were incubated for 20 hours. Monoclonal antibody against CD69(anti-CD69 mAb) was treated to the cells to carry out color-reaction and analysed by flow cytometry.
# [8] = test system: interleukin-2 receptor(IL-2R); test: Activation-induced interleukin-2 receptor expression on Jurkat T cell surface, flow cytometry; assay type: cell-based, human; details: 1 μg/ml, OKT-3 + PMA
# Description: To investigate the suppressive activity against interleukin-2 receptor(IL-2R) expression on the cell surface, 1×10^6 of Jurkat T cell treated with 1 μg/ml of tautomycetin was activated by OKT-3 monoclonal antibody and PMA, and color-developed by the aid of monoclonal antibody against IL-2R(anti IL-2R mAb), then analysed by flow cytometry.
# [9] = test system: graft rejection in heart transplantation; test: Heart graft experiment (Lewis rat donor, Wistar rat recipient), heartbeat by palpation; assay type: in vivo
substance,measurement,setting,value
tautomycetin,minimum inhibitory concentration(MIC),"[1]; 48 hours at 28° C., size of growth inhibitory zone",less than 1 μg/ml
same,antimicrobial strength relative to cyclosporin A,[1]; MIC comparison,10 times
same,IC50,[2],43 nM
same,"IC50, suppressive activity against IL-2 expression","[3]; Jurkat T transfectants, 4 μM ionomycin and 64 nM PMA, 24 hours",3 ng/mL
same,suppressive activity against IL-2 expression relative to cyclosporin A,[3]; PMA + ionomycin,6 times
same,Suppressive Activity against IL-2 expression,"[3]; concentration 0.001 μg/ml, PMA + ionomycin",12.8
same,Suppressive Activity against IL-2 expression,"[3]; concentration 0.01 μg/ml, PMA + ionomycin",83.9
same,Suppressive Activity against IL-2 expression,"[3]; concentration 0.1 μg/ml, PMA + ionomycin",88
same,Suppressive Activity against IL-2 expression,"[3]; concentration 1 μg/ml, PMA + ionomycin",98
same,"IC50, suppressive activity against IL-2 expression","[4]; Jurkat T transfectants, immobilized OKT-3 and 64 nM PMA, 24 hours",6.6e-06 ng/mL
same,suppressive activity against IL-2 expression relative to cyclosporin A,[4]; OKT-3 + PMA,100 times
same,Suppressive Activity against IL-2 expression,"[4]; concentration 10^−7 μg/ml, OKT-3 + PMA",74.8
same,Suppressive Activity against IL-2 expression,"[4]; concentration 10^−8 μg/ml, OKT-3 + PMA",46.8
same,Suppressive Activity against IL-2 expression,"[4]; concentration 10^−9 μg/ml, OKT-3 + PMA",37.5
same,"tyrosine phosphorylation of intracellular proteins (TcR-mediated signal transduction), except for ZAP-70",[5],inhibited
same,tyrosine phosphorylation of intracellular proteins in B-cell,[6],does not inhibit
same,activation-induced expression of cell surface antigen CD69,[7],suppresses the expression of cell surface antigen CD69
same,activation-induced expression of IL-2R on the cell surface,[8],suppresses the expression of IL-2R on the cell surface more effectively than cyclosporin A
same,"concentration sustaining the heart movement, as fraction of cyclosporin A","[9]; i.p., injection formula of Example 11",1/50
same,"concentration sustaining the heart movement, as fraction of cyclosporin A","[9]; i.v., injection formula of Example 12",1/500

# From patent US6608045B2 (priority 1998, dated 2003)
